Assay results as given in patent US20230331685A1, “HERBICIDAL COMPOUNDS AND METHODS OF USE THEREOF” (AG Plenus Ltd, priority 2020, published 2023).

Assays:
Type in all cases: in vivo
Lolium perenne [1] = assay: LTP post-emergence greenhouse test; settings: Dosage 2000 g/ha
Arabidopsis thaliana [2] = assay: LTP post-emergence greenhouse test; settings: Dosage 2000 g/ha
Matricaria chamomilla [3] = assay: LTP post-emergence greenhouse test; settings: Dosage 2000 g/ha
Sinapis alba [4] = assay: LTP post-emergence greenhouse test; settings: Dosage 2000 g/ha
Alopecurus myosuroides [5] = assay: LTP post-emergence greenhouse test; settings: Dosage 2000 g/ha
Galium aparine = assay: LTP post-emergence greenhouse test; settings: Dosage 2000 g/ha
Poa annua [6] = assay: LTP post-emergence greenhouse test; settings: Dosage 2000 g/ha
Phalaris paradoxa [7] = assay: LTP post-emergence greenhouse test; settings: Dosage 2000 g/ha
Chenopodium album = assay: LTP post-emergence greenhouse test; settings: Dosage 2000 g/ha
Alopecurus myosuroides [8] = assay: LTP pre-emergence greenhouse test; settings: Dosage 2000 g/ha
Description: (§1) A basic panel of 8 weed species (Table 3) were sowed in 4×4×7 cm plastic pots containing inert sand (Sweet sand), intensively washed using osmosis water. Each specie was sowed in a separate pot. In each pot 10-15 seeds were sowed according to the specie viability. Sowing was performed one day before application. The plants were grown for 21 days in a controlled greenhouse (26±2° C. day 20±2° C. night). Hood irrigation (tap water+Shefer 5:3:8 8 mM) was given at a 50% water content by weight. Compounds were soluble in water (DDW), and commercial herbicide control was soluble in formulation B (Table 4). Application was conducted with an industrial sprayer (TeeJet 6502E nozzle) at a rate of 2 kg/ha and spray volume of […]. Pre-emergence advanced dose response experiment application was conducted at six rates between 1-0.0312 kg/ha and spray volume of […]. Percentage of emergence was evaluated at 15 DAA. Visual phenotyping was recorded using a scale of 0-6 (0: no visible effect, 6: maximum effect) at 18 DAA. All experiments included an untreated control, a solvent control and a positive control (commercial herbicide A.I.). […] Statistical analysis for plant emergence determined by % emergence ≥50 and T test (pval≤0.05), as well as Wilcox test (pval≤0.05).

Poa annua [9] = assay: LTP pre-emergence greenhouse test; settings: Dosage 2000 g/ha
Description: as §1

Abutilon theophrasti [10] = assay: LTP pre-emergence greenhouse test; settings: Dosage 2000 g/ha
Description: as §1

Phalaris paradoxa [11] = assay: LTP pre-emergence greenhouse test; settings: Dosage 2000 g/ha
Description: as §1

Ambrosia artemisiifolia = assay: LTP pre-emergence greenhouse test; settings: Dosage 2000 g/ha
Description: as §1

Eragrostis tef [12] = assay: LTP pre-emergence greenhouse test; settings: Dosage 2000 g/ha
Description: as §1

Matricaria chamomilla [13] = assay: LTP pre-emergence greenhouse test; settings: Dosage 2000 g/ha
Description: as §1

Sinapis alba [14] = assay: LTP pre-emergence greenhouse test; settings: Dosage 2000 g/ha
Description: as §1

Setaria viridis = assay: LTP pre-emergence greenhouse test; settings: Dosage 2000 g/ha
Description: as §1

Amaranthus palmeri = assay: LTP pre-emergence greenhouse test; settings: Dosage 2000 g/ha
Description: as §1

Arabidopsis thaliana [15] = assay: LTP pre-emergence greenhouse test; settings: Dosage 2000 g/ha
Description: as §1

Lolium perenne [16] = assay: LTP pre-emergence greenhouse test; settings: Dosage 2000 g/ha
Description: as §1

Arabidopsis thaliana [17] = assay: HTPS pre-emergence application on dicot model plant
Description: The plates were placed in a controlled greenhouse in a random order inside a bath which allows flooding irrigation with tap water supplemented with a fertilizer. Applied compounds were dissolved into a final solution of 50% acetone, 49.9% DDW, 0.1% tween-20. A 96 well plate was used as a stock plate for preparing application solutions for 8 repeats. Each row contained different concentrations per chemical. Maximal concentration for application was 1.5 Kg/Ha and dilution factor is 2.5. Chemical application was performed one day after thinning out in a chemical hood. […] applied on first two true leaves in each well using 12 channel pipettes. Data collection: RGB (red, green, blue) data for green area per well was documented using camera. Data is collected at a few time points during the experiment: one day after thinning and before chemical application, two-, six- or nine-days post application. During the last two documentations, visual phenotyping was performed. Data analysis: Given RGB results and visual phenotype scores, a student t-test conducted to compare between treatment and control performance for continuous data (RGB) and Fisher exact test to analyze the non-continuous data (phenotypic scores). Dose-Response curves are generated for each treatment to infer ED50 and max. inhibition parameters, using treatment's log concentration range as the […] and normalized green area. […] Plate imaging performed at 11 and 18 DAA. RGB data for green area per well was documented and used to extract % inhibition. Dose-Response curves were built for each treatment to infer EC50, EC75 and EC90 parameters, using treatment's log concentration range as the independent variable and normalized green area as the dependent variable. Treatments were compared to controls performance given RGB results and using student's t-test (p-val≤0.05). Compounds 104-154 were applied in either or both pre- and post-emergence mode to either or both monocot and dicot model plants, following the methods described above. The compounds were applied as a gradient of concentrations as listed above, from which the ED50 was calculated.

Echinochloa colon = assay: LTP post-emergence greenhouse test; settings: Dosage 2000 g/ha
[18] = test system: monocot and eudicot weeds species; assay: In-planta LTP weed panel, overall assessment; settings: monocot and eudicot weeds species; both post-emergence and pre-emergence; most of the species tested
Stellaria media = assay: LTP post-emergence greenhouse test; settings: Dosage 2000 g/ha
Lolium multiflorum = assay: LTP post-emergence greenhouse test; settings: Dosage 2000 g/ha
Phalaris minor = assay: LTP post-emergence greenhouse test; settings: Dosage 2000 g/ha
Abutilon theophrasti [19] = assay: LTP post-emergence greenhouse test; settings: Dosage 2000 g/ha
Solanum nigrum = assay: LTP post-emergence greenhouse test; settings: Dosage 2000 g/ha
Eragrostis tef [20] = assay: LTP post-emergence greenhouse test; settings: Dosage 2000 g/ha

Structure (SMILES): C[C@@H](O)[C@@H](N)CCCCC(=O)O [Compound 104, (6S,7R)-6-amino-7-hydroxyoctanoic acid]
- Herbicidal activity (In-planta), LTP-Post emergence, Lolium perenne (Lolium perenne [1]): 85-90
- Herbicidal activity (In-planta), LTP-Post emergence, Arabidopsis thaliana (Arabidopsis thaliana [2]): 60
- Herbicidal activity (In-planta), LTP-Post emergence, Matricaria chamomilla (Matricaria chamomilla [3]): 70-80
- Herbicidal activity (In-planta), LTP-Post emergence, Sinapis alba (Sinapis alba [4]): 60
- Herbicidal activity (In-planta), LTP-Post emergence, Alopecurus myosuroides (Alopecurus myosuroides [5]): 95
- Herbicidal activity (In-planta), LTP-Post emergence, Galium aparine (Galium aparine): 70
- Herbicidal activity (In-planta), LTP-Post emergence, Poa annua (Poa annua [6]): 90
- Herbicidal activity (In-planta), LTP-Post emergence, Phalaris paradoxa (Phalaris paradoxa [7]): 80
- Herbicidal activity (In-planta), LTP-Post emergence, Chenopodium album (Chenopodium album): 90
- Herbicidal activity (In-planta), LTP-Pre emergence, Alopecurus myosuroides (Alopecurus myosuroides [8]): 40
- Herbicidal activity (In-planta), LTP-Pre emergence, Poa annua (Poa annua [9]): 100
- Herbicidal activity (In-planta), LTP-Pre emergence, Abutilon theophrasti (Abutilon theophrasti [10]): 60-80
- Herbicidal activity (In-planta), LTP-Pre emergence, Phalaris paradoxa (Phalaris paradoxa [11]): 60
- Herbicidal activity (In-planta), LTP-Pre emergence, Ambrosia artemisiifolia (Ambrosia artemisiifolia): 0
- Herbicidal activity (In-planta), LTP-Pre emergence, Eragrostis tef (Eragrostis tef [12]): 100
- Herbicidal activity (In-planta), LTP-Pre emergence, Matricaria chamomilla (Matricaria chamomilla [13]): 80
- Herbicidal activity (In-planta), LTP-Pre emergence, Sinapis alba (Sinapis alba [14]): 40-60
- Herbicidal activity (In-planta), LTP-Pre emergence, Setaria viridis (Setaria viridis): 100
- Herbicidal activity (In-planta), LTP-Pre emergence, Amaranthus palmeri (Amaranthus palmeri): 80
- Herbicidal activity (In-planta), LTP-Pre emergence, Arabidopsis thaliana (Arabidopsis thaliana [15]): 40-80
- Herbicidal activity (In-planta), LTP-Pre emergence, Lolium perenne (Lolium perenne [16]): 80
- ED50 (g/ha) (Arabidopsis thaliana [17]; dose-response of normalized green area): 6 g/ha
- Max Inhibition (%) (Arabidopsis thaliana [17]; green area (RGB)): 94%
- Herbicidal activity (In-planta), LTP-Post emergence, Echinochloa colon (Echinochloa colon): 95
- control of weeds (in words) [18]: excellent control
- Herbicidal activity (In-planta), LTP-Post emergence, Stellaria media (Stellaria media): 95
- Herbicidal activity (In-planta), LTP-Post emergence, Lolium multiflorum (Lolium multiflorum): 80-90
- Herbicidal activity (In-planta), LTP-Post emergence, Phalaris minor (Phalaris minor): 20-30
- Herbicidal activity (In-planta), LTP-Post emergence, Abutilon theophrasti (Abutilon theophrasti [19]): 80
- Herbicidal activity (In-planta), LTP-Post emergence, Solanum nigrum (Solanum nigrum): 80-90
- Herbicidal activity (In-planta), LTP-Post emergence, Eragrostis tef (Eragrostis tef [20]): 60-100
